Results taken from patent US20250034183A1, “POLYMORPHIC FORMS AND METHODS OF PRODUCING POLYMORPHIC FORMS OF A COMPOUND” (Viking Therapeutics, Inc., priority 2022, published 2025).
Where “and” joins values, the source holds several entries; their conditions need not be identical. Equal values may be shown once. Entries after “also recorded” stand apart in the source; their conditions may differ. Where a name gives a salt, the structure may show the parent alone.

Legend:
Type in all cases: physicochemical
[1] = Equilibrium aqueous solubility in water at ambient temperature
Experimental: Equilibrium solubility of Compound 1 and 1-A was measured in water at ambient temperature. A known volume of water was placed in a 1-dram glass vial and weight aliquots of Compound 1 or Compound 1-A were added while magnetically stirring at room temperature. If the solid dissolved, another aliquot of […] was added.

[2] = Kinetic solubility in simulated gastric fluid (SGF); details: for Concentration in SFG: SGF pH about 1.2, 37° C.; for Resulting solid after kinetic solubility in SGF (XRPD): SGF pH about 1.2; for Concentrations in SGF up until 6 hours: SGF pH about 1.2, all time points up until 6 hours
Experimental: (§1) In SGF, concentrations were below 1 μg/mL up until 6 hours. The resulting solid was form A. In water, a concentration of 0.3 mg/mL was achieved within 2 minutes and concentration after 6 hours was about 0.5 mg/mL.
(§2) In SGF, concentrations were below 1 μg/mL up until 6 hours. The resulting solid was non-crystalline by XRPD. In water, a concentration of 2.3 mg/mL was achieved within 2 minutes and concentration after 6 hours was about 3.1 mg/mL.

[3] = Kinetic solubility in water at 37° C.
Experimental: as §1, §2

[4] = Dynamic vapor sorption (DVS) hygroscopicity; details: for Hygroscopicity / water uptake (DVS): 25° C., 5 to 95% RH
Experimental: DVS analysis was carried out using a TA Instruments Q5000 Dynamic Vapor Sorption analyzer. The instrument was calibrated with standard weights and a sodium bromide standard for humidity. Approximately 10-25 mg of sample was loaded into a metalcoated quartz pan for analysis. The sample was analyzed at 25° C. with a maximum equilibration time of one hour in 10% relative humidity (RH) steps from 5 to 95% RH (adsorption cycle) and from 95 to 5% RH (desorption cycle). The movement from one step to the next occurred either after satisfying the equilibrium criterion of 0.01% weight change or, if the equilibrium criterion was not met, after one hour. The percent weight change values were calculated using Microsoft Excel®.

[5] = Competitive slurry (interconversion) experiments, solid form by XRPD; details: all competitive slurry conditions tested
Experimental: Solutions (˜2 mL) were saturated with Form A of Compound 1. Once saturated, they were centrifuged and the mother liquors were transferred to HPLC vials containing equal amounts (approximately 10 mg each) of Forms A, C, D, and E. The samples were then stirred magnetically at a specified temperature for 3 days. Solids were collected by vacuum filtration.

SMILES | Concentration at 4 hours [1] | Concentration at 24 hours [1] | Concentration at 48 hours [1] | Concentration in SFG ([2]; 2 min) | Concentration in SFG ([2]; 5 min) | Concentration in SFG ([2]; 10 min) | Concentration in SFG ([2]; 30 min) | Concentration in SFG ([2]; 60 min) | Concentration in SFG ([2]; 120 min) | Concentration in SFG ([2]; 240 min) | Concentration in SFG ([2]; 360 min) | Concentration in water ([3]; 2 min) | Concentration in water ([3]; 5 min) | Concentration in water ([3]; 10 min) | Concentration in water ([3]; 30 min) | Concentration in water ([3]; 60 min) | Concentration in water ([3]; 120 min) | Concentration in water ([3]; 240 min) | Concentrations in SGF up until 6 hours [2] | Hygroscopicity / water uptake (DVS) [4] | further results
Cc1cc(OCP(=O)(O)O)cc(C)c1Cc1ccc(O)c(Cc2ccccc2)c1 [Compound 1-A, (2-dimethylamino)ethanol (“deanol”) salt of Compound 1] | 1450 µg/mL | 1430 µg/mL | 1420 µg/mL | 0.35 µg/mL | 0.17 µg/mL | 0.11 µg/mL | 0.08 µg/mL | 0.05 µg/mL | 0.28 µg/mL | 0.21 µg/mL | 0.07 µg/mL | 2250 µg/mL | 2660 µg/mL | 2980 µg/mL | 3070 µg/mL | 3140 µg/mL | 2280 µg/mL | 2870 µg/mL |  |  | Concentration in water ([3]; 360 min (6 hours)): 3070 µg/mL
Cc1cc(OCP(=O)(O)O)cc(C)c1Cc1ccc(O)c(Cc2ccccc2)c1 [Compound 1] | 300 µg/mL | 320 µg/mL | 320 µg/mL | 0.4 µg/mL | 0.18 µg/mL | 0.11 µg/mL | 0.1 µg/mL | 0.07 µg/mL | 0.37 µg/mL | 0.15 µg/mL | 0.1 µg/mL | 300 µg/mL and 290 µg/mL | 330 µg/mL | 300 µg/mL | 290 µg/mL | 400 µg/mL | 410 µg/mL | 390 µg/mL | below 1 μg/mL |  | Resulting solid after kinetic solubility in SGF (XRPD) [2]: form A
Cc1cc(OCP(=O)(O)O)cc(C)c1Cc1ccc(O)c(Cc2ccccc2)c1 [Crystalline Form 1] |  |  |  |  |  |  |  |  |  |  |  |  |  |  |  |  |  |  | below 1 μg/mL |  | Resulting solid after kinetic solubility in SGF (XRPD) ([2]; listed as Compound 1-A (Form 1)): non-crystalline; Resulting solid after kinetic solubility in water [3]: crystalline Form 3; Concentration in water ([3]; 2 min, listed as Compound 1-A (Form 1)): 2300 µg/mL; Concentration in water ([3]; 360 min (6 hours), listed as Compound 1-A (Form 1)): about 3.1 mg/mL
Cc1cc(OCP(=O)(O)O)cc(C)c1Cc1ccc(O)c(Cc2ccccc2)c1 [Crystalline Form 2] |  |  |  |  |  |  |  |  |  |  |  |  |  |  |  |  |  |  |  |  | Hygroscopicity / water uptake (DVS) ([4]; listed as Crystal Form 2): moderately hygroscopic
Cc1cc(OCP(=O)(O)O)cc(C)c1Cc1ccc(O)c(Cc2ccccc2)c1 [Crystalline Form 3] |  |  |  |  |  |  |  |  |  |  |  |  |  |  |  |  |  |  |  | slight water uptake | 
Cc1cc(OCP(=O)(O)O)cc(C)c1Cc1ccc(O)c(Cc2ccccc2)c1 [Crystalline Form A] |  |  |  |  |  |  |  |  |  |  |  |  |  |  |  |  |  |  |  | moderately hygroscopic; also recorded: moderate water uptake | Stability over humidity [4]: stable over a wide range of humidity; Relative stability of crystal forms [5]: most stable form
